Assays:
[1] = tested on: Human immunodeficiency virus 1; assay: Antiviral activity against wild type HIV1 infected in human MT2 cells; assay type: functional, organism-based; conditions: Human immunodeficiency virus 1, MT2
[2] = tested on: Human immunodeficiency virus 1; assay: Antiviral activity against HIV1 harboring reverse transcriptase Y181C mutant infected in human MT2 cells; assay type: functional, organism-based; conditions: Human immunodeficiency virus 1, MT2
[3] = tested on: Human immunodeficiency virus 1; assay: Antiviral activity against NNRTI-resistant HIV1 harboring reverse transcriptase K103N mutant infected in human MT2 cells; assay type: functional, organism-based; conditions: Human immunodeficiency virus 1, MT2
[4] = biological target: Albumin (Homo sapiens, UniProt P02768); assay: Binding affinity to human serum albumin; assay type: ADME; conditions: read-out: PB (converted)
[5] = Half life in human microsomes; assay type: ADME, Microsome
[6] = Half life in Beagle dog at 0.5 mg/kg, iv or 0.5 mg/kg, po; assay type: ADME, organism-based, Canis lupus familiaris; conditions: in vivo
[7] = Volume of distribution at steady state in Beagle dog at 0.5 mg/kg, iv or 0.5 mg/kg, po; assay type: ADME, organism-based, Canis lupus familiaris; conditions: in vivo, read-out: Vdss
[8] = Oral bioavailability in Beagle dog at 4 mg/kg, po; assay type: ADME, organism-based, Canis lupus familiaris; conditions: in vivo
[9] = Half life in dog microsomes; assay type: ADME, Canis lupus familiaris, Microsome
[10] = Oral bioavailability in Beagle dog at 0.5 mg/kg, po; assay type: ADME, organism-based, Canis lupus familiaris; conditions: in vivo
[11] = Oral bioavailability in Beagle dog at 2 mg/kg, po; assay type: ADME, organism-based, Canis lupus familiaris; conditions: in vivo

Albumin, sequence (P02768 whole entry): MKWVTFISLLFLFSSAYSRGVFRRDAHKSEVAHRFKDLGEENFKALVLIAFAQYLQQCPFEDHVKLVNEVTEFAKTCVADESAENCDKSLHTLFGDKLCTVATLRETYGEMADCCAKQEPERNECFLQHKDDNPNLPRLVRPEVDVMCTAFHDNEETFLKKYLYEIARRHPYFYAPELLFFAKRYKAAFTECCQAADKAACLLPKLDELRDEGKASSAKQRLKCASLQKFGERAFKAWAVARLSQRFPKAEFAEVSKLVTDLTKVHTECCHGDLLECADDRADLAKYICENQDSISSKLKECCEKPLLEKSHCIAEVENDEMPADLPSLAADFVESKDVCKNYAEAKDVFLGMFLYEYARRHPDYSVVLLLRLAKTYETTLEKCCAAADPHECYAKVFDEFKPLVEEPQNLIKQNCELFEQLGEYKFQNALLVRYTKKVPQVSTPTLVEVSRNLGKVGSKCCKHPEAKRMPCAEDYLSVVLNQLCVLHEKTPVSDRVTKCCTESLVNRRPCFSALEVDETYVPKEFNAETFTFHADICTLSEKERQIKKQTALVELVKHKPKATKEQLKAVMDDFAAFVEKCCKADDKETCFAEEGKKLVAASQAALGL

SMILES: Cc1cc(C#N)cc(C(=O)c2c(C(C)C)c(=O)[nH]c(=O)n2Cc2cc(N)nc(F)c2)c1
- EC50 [1]: 3.4 nM
- EC50 [2]: 6.7 nM
- EC50 [3]: 1.6 nM
- fraction unbound [4]: 0.064
- half-life [5]: 0.75 h
- half-life [6]: 3.3 h
- Vd [7]: 1.8 L/kg
- bioavailability [8]: 96%

SMILES: Cc1cc(C#N)cc(C(=O)c2c(C(C)C)c(=O)[nH]c(=O)n2Cc2cc(N)nc(F)c2F)c1
- EC50 [1]: 4.5 nM
- EC50 [2]: 8.2 nM
- EC50 [3]: 7.3 nM
- fraction unbound [4]: 0.067
- half-life [5]: 0.85 h

SMILES: Cc1cc(C#N)cc(C(=O)c2c(C(C)C)c(=O)[nH]c(=O)n2Cc2cc(F)nc(F)c2)c1
- EC50 [1]: 12.4 nM
- EC50 [2]: 12 nM
- EC50 [3]: 1.9 nM
- fraction unbound [4]: 0.058
- t1/2 [5]: Stable
- t1/2 [9]: Stable
- half-life [6]: 4.9 h
- Vd [7]: 1.94 L/kg
- bioavailability [10]: 41.5%

SMILES: Cc1cc(C#N)cc(C(=O)c2c(C(C)C)c(=O)[nH]c(=O)n2Cc2ccnc(F)c2)c1
- EC50 [1]: 6.2 nM
- EC50 [2]: 16 nM
- EC50 [3]: 2.4 nM
- fraction unbound [4]: 0.123
- half-life [5]: 4.68 h
- half-life [6]: 4.7 h
- Vd [7]: 1.61 L/kg
- bioavailability [11]: 80%

SMILES: O=C1Nc2ccc(Cl)cc2[C@@](C#CC2CC2)(C(F)(F)F)O1 [EFAVIRENZ]
- EC50 [2]: 2.6 nM
- EC50 [3]: 35 nM
- half-life [5]: 1.63 h

SMILES: Cc1cc(C#N)cc(C)c1Oc1nc(Nc2ccc(C#N)cc2)nc(N)c1Br [ETRAVIRINE]
- EC50 [1]: 1.6 nM
- EC50 [2]: 2.6 nM
- EC50 [3]: 0.9 nM
- half-life [5]: 2.33 h

Reference: ChEMBL document CHEMBL1154930, “N1-Heterocyclic pyrimidinediones as non-nucleoside inhibitors of HIV-1 reverse transcriptase” (Bioorg Med Chem Lett, 2010)
